How the values were obtained:
[1] = target: T1, NUAK family SNF1-like kinase 1 (Homo sapiens) (UniProt O60285); assay: Inhibition of human ARK5 at 500 nM by HotSpot assay relative to control
T1 sequence (whole entry): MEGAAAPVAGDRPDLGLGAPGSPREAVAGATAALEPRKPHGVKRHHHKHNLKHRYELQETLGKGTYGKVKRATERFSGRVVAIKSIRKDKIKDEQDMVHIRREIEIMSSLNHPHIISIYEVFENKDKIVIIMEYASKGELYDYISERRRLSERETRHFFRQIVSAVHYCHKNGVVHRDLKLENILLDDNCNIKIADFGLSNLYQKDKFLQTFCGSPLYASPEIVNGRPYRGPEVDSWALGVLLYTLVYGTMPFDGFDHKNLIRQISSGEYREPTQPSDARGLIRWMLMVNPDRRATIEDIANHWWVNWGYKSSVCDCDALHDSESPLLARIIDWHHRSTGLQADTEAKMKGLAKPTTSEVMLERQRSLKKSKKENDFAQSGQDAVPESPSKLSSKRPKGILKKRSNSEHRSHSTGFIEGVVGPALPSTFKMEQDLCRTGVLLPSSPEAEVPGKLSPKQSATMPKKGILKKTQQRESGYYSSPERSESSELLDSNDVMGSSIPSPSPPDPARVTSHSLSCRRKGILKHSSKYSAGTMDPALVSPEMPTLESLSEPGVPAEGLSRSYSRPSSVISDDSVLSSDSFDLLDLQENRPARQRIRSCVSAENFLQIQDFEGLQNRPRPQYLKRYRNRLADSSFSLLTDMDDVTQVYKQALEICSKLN

[2] = target: T2, Aurora kinase C (Homo sapiens) (UniProt Q9UQB9); assay: Inhibition of human Aurora C at 500 nM by HotSpot assay relative to control
T2 sequence (whole entry): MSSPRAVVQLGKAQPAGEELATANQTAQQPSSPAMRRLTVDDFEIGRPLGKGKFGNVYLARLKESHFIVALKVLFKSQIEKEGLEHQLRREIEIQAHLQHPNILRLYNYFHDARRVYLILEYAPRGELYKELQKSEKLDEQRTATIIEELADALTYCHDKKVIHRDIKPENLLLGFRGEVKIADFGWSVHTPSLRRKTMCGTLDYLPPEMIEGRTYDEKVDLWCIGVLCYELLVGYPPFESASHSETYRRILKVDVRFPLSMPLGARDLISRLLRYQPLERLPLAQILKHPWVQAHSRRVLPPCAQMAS

[3] = target: Calcium/calmodulin-dependent protein kinase type 1 (Homo sapiens) (UniProt Q14012); assay: Inhibition of human CAMK1a at 500 nM by HotSpot assay relative to control
[4] = target: Casein kinase I isoform alpha (Homo sapiens) (UniProt P48729); assay: Inhibition of human CK1a1 at 500 nM by HotSpot assay relative to control
[5] = target: Casein kinase I isoform delta (Homo sapiens) (UniProt P48730); assay: Inhibition of human CK1d at 500 nM by HotSpot assay relative to control
[6] = target: Death-associated protein kinase 1 (Homo sapiens) (UniProt P53355); assay: Inhibition of human DAPK1 at 500 nM by HotSpot assay relative to control
[7] = target: T3, Mitogen-activated protein kinase kinase kinase kinase 2 (Homo sapiens) (UniProt Q12851); assay: Inhibition of human GCK at 500 nM by HotSpot assay relative to control
T3 sequence (whole entry): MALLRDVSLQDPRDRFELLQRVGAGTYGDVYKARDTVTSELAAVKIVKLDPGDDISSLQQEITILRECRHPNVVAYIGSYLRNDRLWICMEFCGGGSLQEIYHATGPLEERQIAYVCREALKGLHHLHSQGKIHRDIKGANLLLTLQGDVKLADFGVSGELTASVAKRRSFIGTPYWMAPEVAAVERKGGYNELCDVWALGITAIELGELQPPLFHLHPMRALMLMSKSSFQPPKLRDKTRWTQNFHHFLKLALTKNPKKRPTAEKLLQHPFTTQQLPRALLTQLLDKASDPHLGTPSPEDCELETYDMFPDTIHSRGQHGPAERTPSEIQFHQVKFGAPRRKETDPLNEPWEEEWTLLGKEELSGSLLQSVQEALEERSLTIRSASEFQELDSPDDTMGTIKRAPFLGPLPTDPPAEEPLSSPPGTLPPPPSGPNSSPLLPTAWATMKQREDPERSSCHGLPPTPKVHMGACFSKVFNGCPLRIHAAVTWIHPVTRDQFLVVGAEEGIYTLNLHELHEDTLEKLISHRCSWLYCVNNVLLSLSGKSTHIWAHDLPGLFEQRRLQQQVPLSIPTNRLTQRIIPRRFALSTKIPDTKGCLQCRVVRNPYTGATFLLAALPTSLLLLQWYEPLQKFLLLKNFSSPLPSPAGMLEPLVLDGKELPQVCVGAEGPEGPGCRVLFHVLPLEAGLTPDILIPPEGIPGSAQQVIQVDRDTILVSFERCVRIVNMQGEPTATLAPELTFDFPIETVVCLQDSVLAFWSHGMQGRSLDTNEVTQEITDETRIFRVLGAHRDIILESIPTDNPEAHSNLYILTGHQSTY

[8] = target: Mitogen-activated protein kinase kinase kinase kinase 5 (Homo sapiens) (UniProt Q9Y4K4); assay: Inhibition of human KHS at 500 nM by HotSpot assay relative to control
[9] = target: Misshapen-like kinase 1 (Homo sapiens) (UniProt Q8N4C8); assay: Inhibition of human MINK1 at 500 nM by HotSpot assay relative to control
[10] = target: T4, Tyrosine-protein kinase Tec (Homo sapiens) (UniProt P42680); assay: Inhibition of human TEC at 500 nM by HotSpot assay relative to control
T4 sequence (whole entry): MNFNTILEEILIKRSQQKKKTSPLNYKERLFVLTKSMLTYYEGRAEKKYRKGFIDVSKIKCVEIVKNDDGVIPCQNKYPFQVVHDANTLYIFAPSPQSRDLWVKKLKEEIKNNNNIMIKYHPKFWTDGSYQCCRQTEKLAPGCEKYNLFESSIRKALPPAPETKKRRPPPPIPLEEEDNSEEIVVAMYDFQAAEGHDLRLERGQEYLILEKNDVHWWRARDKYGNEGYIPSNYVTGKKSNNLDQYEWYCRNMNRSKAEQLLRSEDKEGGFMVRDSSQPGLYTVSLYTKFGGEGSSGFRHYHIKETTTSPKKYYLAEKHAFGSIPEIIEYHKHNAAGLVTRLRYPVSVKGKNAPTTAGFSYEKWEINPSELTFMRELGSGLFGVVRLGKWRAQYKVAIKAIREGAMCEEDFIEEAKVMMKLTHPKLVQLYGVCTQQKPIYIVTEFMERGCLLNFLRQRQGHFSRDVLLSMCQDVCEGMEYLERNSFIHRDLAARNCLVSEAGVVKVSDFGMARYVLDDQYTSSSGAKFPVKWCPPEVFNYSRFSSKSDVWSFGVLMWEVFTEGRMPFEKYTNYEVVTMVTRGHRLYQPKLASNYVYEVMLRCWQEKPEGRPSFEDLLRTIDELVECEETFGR

Chain of Death-associated protein kinase 1 (Homo sapiens) (P53355 whole entry, looked up): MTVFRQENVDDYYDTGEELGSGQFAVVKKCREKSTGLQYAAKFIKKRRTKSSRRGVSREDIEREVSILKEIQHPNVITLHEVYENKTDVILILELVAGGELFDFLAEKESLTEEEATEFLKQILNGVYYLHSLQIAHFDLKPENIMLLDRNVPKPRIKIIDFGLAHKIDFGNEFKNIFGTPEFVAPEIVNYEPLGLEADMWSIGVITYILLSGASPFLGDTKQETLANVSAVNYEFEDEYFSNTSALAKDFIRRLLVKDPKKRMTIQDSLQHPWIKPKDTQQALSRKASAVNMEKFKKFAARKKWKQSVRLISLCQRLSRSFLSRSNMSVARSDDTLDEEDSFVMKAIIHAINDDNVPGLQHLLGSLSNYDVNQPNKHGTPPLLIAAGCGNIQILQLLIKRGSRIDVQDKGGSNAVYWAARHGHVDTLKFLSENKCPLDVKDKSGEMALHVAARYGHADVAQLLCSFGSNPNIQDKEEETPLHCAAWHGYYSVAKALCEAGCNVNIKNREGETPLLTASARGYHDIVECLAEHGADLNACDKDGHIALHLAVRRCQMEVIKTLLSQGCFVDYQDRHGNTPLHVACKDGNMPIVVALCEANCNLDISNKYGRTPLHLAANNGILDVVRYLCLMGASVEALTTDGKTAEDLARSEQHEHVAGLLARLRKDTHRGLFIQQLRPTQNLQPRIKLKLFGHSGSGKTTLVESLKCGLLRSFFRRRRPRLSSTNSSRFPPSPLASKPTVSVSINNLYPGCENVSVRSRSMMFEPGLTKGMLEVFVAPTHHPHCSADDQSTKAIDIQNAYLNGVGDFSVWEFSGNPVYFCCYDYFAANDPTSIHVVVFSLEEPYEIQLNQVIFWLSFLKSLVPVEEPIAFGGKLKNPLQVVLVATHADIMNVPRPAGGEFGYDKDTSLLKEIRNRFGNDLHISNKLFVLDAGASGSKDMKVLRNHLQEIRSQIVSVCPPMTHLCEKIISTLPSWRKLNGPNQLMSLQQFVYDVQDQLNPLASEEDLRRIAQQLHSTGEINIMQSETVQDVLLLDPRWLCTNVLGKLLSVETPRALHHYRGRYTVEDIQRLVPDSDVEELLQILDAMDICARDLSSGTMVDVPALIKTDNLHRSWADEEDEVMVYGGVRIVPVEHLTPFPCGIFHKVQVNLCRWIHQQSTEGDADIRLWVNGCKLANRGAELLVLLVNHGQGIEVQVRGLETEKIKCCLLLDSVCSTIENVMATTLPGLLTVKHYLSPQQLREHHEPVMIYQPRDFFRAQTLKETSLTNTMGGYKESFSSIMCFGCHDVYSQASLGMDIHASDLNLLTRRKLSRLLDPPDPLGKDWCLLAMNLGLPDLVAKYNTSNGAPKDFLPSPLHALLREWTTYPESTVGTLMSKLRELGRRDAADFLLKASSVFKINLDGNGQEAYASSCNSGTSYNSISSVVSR
Chain of Casein kinase I isoform delta (Homo sapiens) (P48730 whole entry, looked up, canonical isoform): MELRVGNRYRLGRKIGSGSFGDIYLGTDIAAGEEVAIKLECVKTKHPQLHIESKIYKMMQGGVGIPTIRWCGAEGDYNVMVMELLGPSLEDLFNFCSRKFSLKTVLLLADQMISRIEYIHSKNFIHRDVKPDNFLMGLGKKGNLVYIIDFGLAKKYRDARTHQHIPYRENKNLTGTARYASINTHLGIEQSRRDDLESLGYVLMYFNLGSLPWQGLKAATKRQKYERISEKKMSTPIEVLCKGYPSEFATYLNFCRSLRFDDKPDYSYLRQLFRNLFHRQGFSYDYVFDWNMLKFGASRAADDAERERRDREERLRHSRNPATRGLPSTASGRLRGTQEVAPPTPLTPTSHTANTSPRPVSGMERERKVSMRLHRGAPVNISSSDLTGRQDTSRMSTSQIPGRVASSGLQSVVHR
Chain of Casein kinase I isoform alpha (Homo sapiens) (P48729 2-337 limits assumed): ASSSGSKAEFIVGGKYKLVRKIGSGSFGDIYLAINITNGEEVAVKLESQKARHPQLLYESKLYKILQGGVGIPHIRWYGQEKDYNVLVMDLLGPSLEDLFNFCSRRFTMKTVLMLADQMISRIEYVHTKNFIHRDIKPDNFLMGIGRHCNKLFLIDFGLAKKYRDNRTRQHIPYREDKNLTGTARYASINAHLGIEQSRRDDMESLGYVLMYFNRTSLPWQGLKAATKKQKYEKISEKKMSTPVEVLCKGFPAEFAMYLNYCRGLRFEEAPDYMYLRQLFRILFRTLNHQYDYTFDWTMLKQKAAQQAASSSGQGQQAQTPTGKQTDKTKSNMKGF
Chain of Misshapen-like kinase 1 (Homo sapiens) (Q8N4C8 whole entry, looked up): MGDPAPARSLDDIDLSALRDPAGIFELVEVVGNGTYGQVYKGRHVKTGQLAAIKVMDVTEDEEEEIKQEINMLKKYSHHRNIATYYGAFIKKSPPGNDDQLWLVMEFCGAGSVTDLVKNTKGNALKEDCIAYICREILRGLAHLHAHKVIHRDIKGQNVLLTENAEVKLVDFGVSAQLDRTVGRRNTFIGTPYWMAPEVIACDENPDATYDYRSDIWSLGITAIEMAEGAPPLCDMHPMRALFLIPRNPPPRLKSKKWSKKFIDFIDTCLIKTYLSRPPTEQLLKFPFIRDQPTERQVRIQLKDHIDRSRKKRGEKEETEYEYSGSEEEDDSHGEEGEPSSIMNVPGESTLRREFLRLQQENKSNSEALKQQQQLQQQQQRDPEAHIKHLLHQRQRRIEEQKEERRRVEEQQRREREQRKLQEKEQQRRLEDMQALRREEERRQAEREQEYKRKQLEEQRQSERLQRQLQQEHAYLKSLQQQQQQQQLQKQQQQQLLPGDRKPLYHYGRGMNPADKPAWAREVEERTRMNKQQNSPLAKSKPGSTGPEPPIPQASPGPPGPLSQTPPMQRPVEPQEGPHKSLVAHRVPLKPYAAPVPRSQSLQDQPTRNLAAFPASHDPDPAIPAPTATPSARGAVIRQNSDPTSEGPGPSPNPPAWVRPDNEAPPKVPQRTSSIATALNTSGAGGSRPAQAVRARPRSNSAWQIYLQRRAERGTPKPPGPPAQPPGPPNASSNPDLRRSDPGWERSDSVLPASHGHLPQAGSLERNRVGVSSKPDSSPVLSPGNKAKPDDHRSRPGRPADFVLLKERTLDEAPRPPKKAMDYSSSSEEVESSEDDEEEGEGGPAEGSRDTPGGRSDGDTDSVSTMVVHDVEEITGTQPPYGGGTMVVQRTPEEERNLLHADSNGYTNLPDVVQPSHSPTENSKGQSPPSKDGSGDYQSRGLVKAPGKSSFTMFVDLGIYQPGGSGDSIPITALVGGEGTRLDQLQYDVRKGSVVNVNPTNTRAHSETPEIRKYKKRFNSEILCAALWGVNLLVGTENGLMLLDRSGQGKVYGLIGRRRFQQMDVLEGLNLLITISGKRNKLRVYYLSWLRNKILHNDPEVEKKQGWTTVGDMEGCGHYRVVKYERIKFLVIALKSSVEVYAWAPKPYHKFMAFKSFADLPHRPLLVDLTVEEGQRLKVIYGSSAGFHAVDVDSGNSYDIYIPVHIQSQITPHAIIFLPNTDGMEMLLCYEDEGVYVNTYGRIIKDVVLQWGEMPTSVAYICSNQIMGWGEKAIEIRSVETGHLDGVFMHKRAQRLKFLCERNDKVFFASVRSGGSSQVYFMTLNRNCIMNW
Chain of Calcium/calmodulin-dependent protein kinase type 1 (Homo sapiens) (Q14012 whole entry, looked up, canonical isoform): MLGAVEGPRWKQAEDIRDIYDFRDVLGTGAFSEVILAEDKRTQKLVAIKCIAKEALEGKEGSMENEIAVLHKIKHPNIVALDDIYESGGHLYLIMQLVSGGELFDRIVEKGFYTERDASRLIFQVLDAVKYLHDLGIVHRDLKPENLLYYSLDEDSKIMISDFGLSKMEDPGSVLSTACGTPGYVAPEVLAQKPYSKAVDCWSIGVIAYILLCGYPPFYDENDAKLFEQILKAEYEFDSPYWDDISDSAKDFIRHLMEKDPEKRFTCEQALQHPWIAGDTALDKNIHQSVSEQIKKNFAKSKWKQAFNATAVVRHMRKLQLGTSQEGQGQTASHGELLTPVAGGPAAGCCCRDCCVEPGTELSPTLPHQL
Chain of Mitogen-activated protein kinase kinase kinase kinase 5 (Homo sapiens) (Q9Y4K4 whole entry, looked up): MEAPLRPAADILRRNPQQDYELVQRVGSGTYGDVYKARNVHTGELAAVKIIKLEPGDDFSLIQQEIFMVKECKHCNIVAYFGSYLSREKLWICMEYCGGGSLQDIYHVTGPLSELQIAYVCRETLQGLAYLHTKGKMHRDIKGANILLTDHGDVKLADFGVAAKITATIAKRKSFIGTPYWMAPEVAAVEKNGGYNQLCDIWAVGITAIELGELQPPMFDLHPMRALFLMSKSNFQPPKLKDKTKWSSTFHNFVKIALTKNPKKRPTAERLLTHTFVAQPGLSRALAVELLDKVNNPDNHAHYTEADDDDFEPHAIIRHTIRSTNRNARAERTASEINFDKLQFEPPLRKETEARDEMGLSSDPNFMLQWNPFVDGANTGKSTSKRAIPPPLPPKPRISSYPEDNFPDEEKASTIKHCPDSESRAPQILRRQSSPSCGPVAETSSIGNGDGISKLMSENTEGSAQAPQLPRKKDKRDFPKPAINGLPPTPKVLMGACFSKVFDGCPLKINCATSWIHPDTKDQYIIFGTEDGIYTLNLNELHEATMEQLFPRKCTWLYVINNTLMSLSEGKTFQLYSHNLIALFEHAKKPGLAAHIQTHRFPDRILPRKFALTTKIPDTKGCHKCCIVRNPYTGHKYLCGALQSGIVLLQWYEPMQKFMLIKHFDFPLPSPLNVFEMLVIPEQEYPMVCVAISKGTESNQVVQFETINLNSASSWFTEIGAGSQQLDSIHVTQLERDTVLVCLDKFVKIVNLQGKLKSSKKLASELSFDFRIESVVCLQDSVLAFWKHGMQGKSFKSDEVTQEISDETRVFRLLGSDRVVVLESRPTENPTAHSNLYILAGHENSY

Compound	inhibition [1]	inhibition [2]	inhibition [3]	inhibition [4]	inhibition [5]	inhibition [6]	inhibition [7]	inhibition [8]	inhibition [9]	inhibition [10]
Oc1n[nH]c2nnc(-c3c(-c4ccccc4)nn4ccccc34)cc12	1.9%	2.04%	0.02%	-6.61%	4.93%	6.45%	-5.76%	3.59%	2.28%	-3%
Nc1n[nH]c2nnc(-c3c(-c4ccccc4)nn4ccccc34)cc12	7.47%	3.59%	-2.35%	-0.27%	36.8%	4.15%	1.42%	49.7%	27.1%	3.88%
